Here are results for 6 compounds from US9144596B2, “Compositions and methods of treating neoplasia” (University of Florida Research Foundation, Inc., priority 2007, dated 2015).

Entries after “also recorded” stand apart in the source; their conditions may differ.

In series [1] the target is T1, pol-β (Homo sapiens, UniProt P06746).
T1 construct: made in house; host or cells: Escherichia coli BL21(DE3)pLysS
Description: dRP-lyase activity assay. The format is biochemical. The conditions noted are these: 1 nM pol-βwt; various concentrations of test substance.

Series [2] deals with T1, pol-β. Briefly: strand-displacement synthesis, reconstituted in vitro base excision repair assay with 32P-F-DNA. The format is biochemical. As to conditions: for pol-β-directed single-nucleotide incorporation: all the concentrations tested; for pol-β-directed strand-displacement synthesis: different concentrations.
The next series relates to HCT-116(APC−/−) cells. Briefly: sulforhodamine B (SRB) colorimetric cytotoxicity assay. In kind it is cell-based, human. As to conditions: for effect on the cytotoxicity of TMZ: 2 hours pretreatment, then TMZ 48 hours. The procedure: (§1) The IC50 (the drug concentration needed to prevent cell proliferation by 50%) of TMZ was determined using a sulforhodamine B (SRB) colorimetric assay. This assay relies on the ability of SRB to bind the protein components of cells that have been fixed to tissue culture plates by trichloroacetic acid (TCA) (Vachai V, Kirtikara K. Sulforhodamine B colorimetric assay for cytotoxicity screening. Nat. Proto. 3: […], 2006). Briefly, the HCT-116(APC^+/+) and HCT-116(APC^−/−) were seeded in 96-well plates at a density of 500 cells per well. After 24 hours, while the cells were in the log phase of cell growth, the cells were treated with different concentrations of TMZ for 48 hours. The cells were subsequently fixed with 10% (w/v) of tricholoroacetic acid, washed with double distilled water, and stained with 0.4% SRB. Cells were then repeatedly washed with 1% (v/v) of acetic acid to remove the unbound dye. The protein bound dye was dissolved in 10 mM Tris-base solution (pH 10.5). The developed color was measured at 564 nm. The percentage of cell survival as a function of drug concentration was then plotted to determine the IC50 value. The IC50 of TMZ in HCT-116(APC^+/+) and HCT-116(APC^−/−) cells was 200 and 400 μM, respectively (FIG. 18A). […] This is consistent with the hypothesis that APC-mediated blockage of base excision repair increase d the sensitivity to TMZ in APC^+/+ cells. SRB assays were then used to determine whether TMZ-induced cytotoxicity was correlative to the increased level of APC in HCT-116(APC^+/+) cells.
(§2) APC blocked base excision repair and sensitized colon cancer cells after TMZ treatment. […] The cellular toxicity was determined by sulforhodamine B (SRB) colorimetric assay as described above. […] The cytotoxicity of these compounds was greater in HCT-116(APC^+/+) cells than in HCT-116(APC^−/−) cells (FIG. 19, compare the results of Panel A with B and C with D, respectively).

In another series the test system is HCT-116(APC+/+) cells. Described as above. The conditions noted are these: for effect on the cytotoxicity of TMZ: 2 hours pretreatment, then TMZ 48 hours. In kind it is cell-based, human. The method, then:
as §1, §2

Series [3] has as its system HCT-116(APC+/+) and HCT-116(APC−/−) colon cancer cell lines. Briefly: SRB cytotoxicity of the compounds alone (FIGS. 19E and F). The format is cell-based, human. As to conditions: up to 100 μM concentrations. The method, then:
After 48 hours, cells were harvested and processed for cytotoxicity determination as described herein. […] Data are the mean±SE of three different estimations.
(§3) The IC50 (the drug concentration needed to prevent cell proliferation by 50%) of TMZ was determined using a sulforhodamine B (SRB) colorimetric assay. This assay relies on the ability of SRB to bind the protein components of cells that have been fixed to tissue culture plates by trichloroacetic acid (TCA) (Vachai V, Kirtikara K. Sulforhodamine B colorimetric assay for cytotoxicity screening. Nat. Proto. 3: […], 2006). Briefly, the HCT-116(APC^+/+) and HCT-116(APC^−/−) were seeded in 96-well plates at a density of 500 cells per well. After 24 hours, while the cells were in the log phase of cell growth, the cells were treated with different concentrations of TMZ for 48 hours. The cells were subsequently fixed with 10% (w/v) of tricholoroacetic acid, washed with double distilled water, and stained with 0.4% SRB. Cells were then repeatedly washed with 1% (v/v) of acetic acid to remove the unbound dye. The protein bound dye was dissolved in 10 mM Tris-base solution (pH 10.5). The developed color was measured at 564 nm. […]
APC blocked base excision repair and sensitized colon cancer cells after TMZ treatment. […] The cellular toxicity was determined by sulforhodamine B (SRB) colorimetric assay as described above. […]

For a further series, the system named is LoVo cells. Description: SRB cytotoxicity assay, MMR-deficient cells. As to conditions: Homo sapiens, TMZ alone, 48 hours. The format is cell-based. The method, then: (§4) FIGS. 24A and 24D NSC-124854 enhanced the cytotoxicity of TMZ in both MMR-positive and MMR-negative colon cancer cell lines in culture. MMR-proficient [HCT-116-APC(WT)+ch3 and SW480 (Panel 24A and […])] and MMR-deficient [CACO-2 and LoVo (Panel 24C and 24D)] cells were pretreated for 2 hours with 50 μM of NSC-124854 followed by the treatment with different concentrations of TMZ. After 48 hours, cells were harvested and processed for cytotoxicity determination. Data presented are the mean±SE of three different estimations.
as §3, with “SRB.” for “SRB. Cells were then repeatedly washed with 1% (v/v) of acetic acid to remove the unbound dye. The protein bound dye was dissolved in 10 mM Tris-base solution (pH 10.5). The developed color was measured at 564 nm.”

The subject of a further series is CACO-2 cells. Description: SRB cytotoxicity assay, MMR-deficient cells. The format is cell-based. The conditions noted are these: Homo sapiens; CACO-2, TMZ alone, 48 hours. The method, then: as §4
as §3, with “SRB.” for “SRB. Cells were then repeatedly washed with 1% (v/v) of acetic acid to remove the unbound dye. The protein bound dye was dissolved in 10 mM Tris-base solution (pH 10.5). The developed color was measured at 564 nm.”
For orientation: Sulforhodamine B stains cellular protein and so reports cell mass.

For another series, the system named is SW480 cells. Description: SRB cytotoxicity assay, MMR-proficient cells. In kind it is cell-based, human. The method, then:
(§5) FIGS. 24A and 24D NSC-124854 enhanced the cytotoxicity of TMZ in both MMR-positive and MMR-negative colon cancer cell lines in culture. […] After 48 hours, cells were harvested and processed for cytotoxicity determination. Data presented are the mean±SE of three different estimations.
as §1

Series [4] relates to HCT-116-APC(WT)+ch3 cells. Briefly: SRB cytotoxicity assay, MMR-proficient cells. In kind it is cell-based, human. The procedure:
as §5, §1

The target in series [5] is T1, pol-β. Description: in vitro SN- and LP-BER assay with 32P-U-DNA. In kind it is biochemical. As to conditions: for complete repair of 32P-U-DNA by the SN-BER pathway: absence of Fen-1, DNA ligase I; for complete repair of 32P-U-DNA by the LP-BER pathway: presence of Fen-1, DNA ligase I.
The target in series [6] is T1, pol-β. Briefly: long patch-base excision repair assay with 32P-F-DNA. The format is biochemical. The conditions noted are these: pol-βwt, Fen-1, DNA ligase I; 2 μM APCwt peptide. The procedure: To determine whether the blockage in the strand-displacement synthesis by the pol-βMut-1 was sufficient to block long patch-base excision repair, a long patch-base excision repair assay was set up as outlined in FIG. 10A. […] This DNA repair was blocked in the presence of 2 μM APCwt peptide, but not with APC(I-A,Y-A) peptide (FIG. 10B, compare lane 5 with 8 for APCwt and with 9-11 for APC(I-A,Y-A), respectively, for the formation of the 63-mer ligated product). […] The 2-nucleotide strand-displacement synthesis by pol-βMut-1 protein was sufficient to carry out long patch-base excision repair in the presence of Fen-1.
To study long patch- and single nucleotide-base excision repair activities, different types of DNA substrates were used. For long patch-base excision repair activity, an AP-site analog (3-hydroxy-2-hydroxymethyltetrahydrofuran, noted as F) was introduced at the 24th position of the 63-mer DNA (5′-[…] CGACA-3′ (SEQ ID NOS 17-18)), which was called F-DNA (27). For making U-DNA, uracil was introduced at the 24th position of 63-mer sense oligonucleotide (5′-[…] GACA-3′ (SEQ ID NO: 19)). Sense strands of F-DNA and U-DNA were 5′-end labeled by [a-^32P]ATP and T4 polynucleotide kinase and purified with a nick-column (GE Healthcare, Piscataway, N.J.). Later they were annealed with the complementary 63-mer oligonucleotide (5′-[…] CTAG-3′ (SEQ ID NO: 20)) at a 1:1 molar ratio. […]

The mark [7] stands for this setting: 32P-U-DNA substrate, dose-dependent.

For `O=C(O)CC(C(=O)O)C(CC(=O)O)C(=O)O` (centres unmarked) [CN3], the “pol-β-directed dRP-lyase activity” value on pol-β [1] is reported as “did not inhibit”. Also, at pol-β [2] (32P-F-DNA substrate), the pol-β-directed single-nucleotide incorporation entry is given as “unaffected” and the pol-β-directed strand-displacement synthesis entry is listed as “dose-dependent decrease”.
As for `Cc1cc(S(=O)(=O)Nc2n[nH]c(Nc3ccc(Cl)cc3)n2)c(S)cc1Cl` [NSC-666715], the “effect on the cytotoxicity of TMZ” value in the series with HCT-116(APC−/−) cells and in the series with HCT-116(APC+/+) cells (HCT-116(APC+/+)) was “increased” throughout. The “cytotoxicity of the compound alone” value in series [3] is recorded as “very low”.
As usually defined, the IC50 is the midpoint of a concentration-inhibition curve. On to `Cn1nnc2c(C(N)=O)ncn2c1=O` [TMZ, Temozolomide, reference compound], for which the IC50 came to 677 µM with LoVo cells; 364 µM with CACO-2 cells; 120 µM in the series on SW480 cells (Homo sapiens, SW480, TMZ alone, 48 hours); 100 µM in [4] (Homo sapiens, HCT-116-APC(WT)+ch3, TMZ alone, 48 hours); 400 µM in the series on HCT-116(APC−/−) cells (Homo sapiens, 48 hours, SRB, read-out: IC50 of TMZ); 200 µM with HCT-116(APC+/+) cells (Homo sapiens, HCT-116(APC+/+), 48 hours, SRB, read-out: IC50 of TMZ). Moreover, in the series with HCT-116(APC+/+) cells (ratio of IC50), the “sensitivity to TMZ of HCT-116(APC+/+) versus HCT-116(APC−/−) cells” value is reported as 2 times.
For `NC1=NC(=O)N(C2CC(O)C(COP(=O)(O)O)O2)C(I)C1` (centres unmarked) [NSC-124854], on pol-β [5] (setting [7]), the “Pol-β-mediated 1-nt incorporation” value is given as “blocked” and the “strand-displacement synthesis in the presence of Fen-1” value was “blocked”. Moreover, at pol-β [5], the “complete repair of 32P-U-DNA by the SN-BER pathway” value is reported as “blocked in a dose-dependent manner” and the “complete repair of 32P-U-DNA by the LP-BER pathway” value was “blocked in a dose-dependent manner”. Further, the “pol-β-directed dRP-lyase activity” value at pol-β [1] is recorded as “successfully blocked”. The “reduction of the IC50 of TMZ” value in the series on SW480 cells (SW480, combination of 50 μM of NSC-124584) amounted to 2.5 fold. Further, in series [4] (HCT-116-APC(WT)+ch3, combination of 50 μM of NSC-124584), the “reduction of the IC50 of TMZ” value was determined as 2.5 fold. Besides, the “effect on the cytotoxicity of TMZ” value with HCT-116(APC−/−) cells was “increased”. Further, in the series on HCT-116(APC+/+) cells (HCT-116(APC+/+)), the “effect on the cytotoxicity of TMZ” value is listed as “increased”. In addition, on pol-β [2] (32P-F-DNA substrate), the “DNA synthesis (1-nt and strand-displacement) of pol-β” value is recorded as “completely blocked”; the pol-β-directed strand-displacement synthesis result is listed as “dose-dependent decrease”. Moreover, the “potency among the four compounds tested, strand-displacement synthesis” value at pol-β [2] (inhibited at lower concentrations) is given as “most potent”. In series [3], the “cytotoxicity of the compound alone” value is on record as “very low”.
With “APC(I-A,Y-A): mutant APC peptide 1250-KVSSINQETAQTACVEDTPI-1269, Ile1259 and Tyr1262 replaced with alanine (UniProt P25054 1250-1269, looked up, variant I1259A Y1262A) [reference compound]”, the “complete DNA repair of F-DNA (63-mer ligated product), LP-BER” value with pol-β [6] is recorded as “not”. In the series with pol-β [5], the “complete repair of 32P-U-DNA by the SN-BER pathway” value is recorded as “not” and the “complete repair of 32P-U-DNA by the LP-BER pathway” value is listed as “not”. Also, the “pol-β-directed dRP-lyase activity” value with pol-β [1] is recorded as “did not show any effect”. Further, in the series with pol-β [2] (32P-F-DNA substrate), the pol-β-directed single-nucleotide incorporation result is given as “unaffected” and the pol-β-directed strand-displacement synthesis entry was “not”.
For “APCwt: wild-type APC peptide of 20 amino acids, 1250-KVSSINQETIQTYCVEDTPI-1269, DNA repair inhibitory (DRI)-domain (UniProt P25054 1250-1269, looked up, fragment)”, the “complete DNA repair of F-DNA (63-mer ligated product), LP-BER” value with pol-β [6] was “blocked”. For the same compound, in the series with pol-β [5], the “complete repair of 32P-U-DNA by the SN-BER pathway” value is reported as “blocked” and the “complete repair of 32P-U-DNA by the LP-BER pathway” value is reported as “blocked”. Further, the “pol-β-directed dRP-lyase activity” value with pol-β [1] is on record as “blocked”. Also, in the series with pol-β [2] (32P-F-DNA substrate), the pol-β-directed single-nucleotide incorporation result was “unaffected” and the pol-β-directed strand-displacement synthesis result is reported as “dose-dependent decrease; also recorded: blocked”.
